Experimental data from patent US20230406865A1, “CRYSTAL FORM OF FREE BASE OF INHIBITOR CONTAINING BICYCLIC RING DERIVATIVE AND PREPARATION METHOD AND APPLICATION OF CRYSTAL FORM” (SHANGHAI HANSOH BIOMEDICAL CO., LTD., priority 2020, published 2023).

Legend:
[1] = molecular target: T1, RET kinase (Homo sapiens, UniProt P07949); test: HTRF kinase activity inhibition, RET wild-type; type: biochemical; conditions: ATP at Km
T1 construct: purchased Carna 08-159
Description: 2.2 Experimental Reagents: • RET enzyme was purchased from Carna Company, and the article number was 08-159; • RET M918T enzyme was purchased from Carna Company, and the article number was 08-508; • KIF5B-RET was purchased from SignalChem Company, the article number was R02-19FG-05; • CCDC6-RET was purchased from SignalChem Company, the article number was R02-19BG-05; • RET V804M enzyme was purchased from Thermofisher Company, and the article number was PV6223; • RET V804L enzyme was purchased from Thermofisher Company, and the article number was PV4397; • HTRF KinEASE-TK kit was purchased from Cisbio Company, and the article number was 62TK0PEC; • ATP was purchased from Thermofisher Company, and the article number was PV3227; • 384-well plate was purchased from PerkinElmer Company, and the article number was 6007290.
In this experiment, a homogeneous time-resolved fluorescence (HTRF) method was used for the detection of compounds on RET kinase activity.

[2] = molecular target: T2, KDR kinase (Homo sapiens, UniProt P35968); test: HTRF kinase activity inhibition, KDR; type: biochemical; conditions: for IC50: HTRF, ATP at Km; for Ratio (KDR/RET): KDR IC50 / RET IC50
T2 construct: purchased Carna 08-191
Description: 2.2 Experimental Reagents: • KDR kinase was purchased from Carna Company, and the article number was 08-191; • HTRF KinEASE-TK kit was purchased from Cisbio Company, and the article number was 62TK0PEC; • ATP was purchased from Thermofisher Company, and the article number was PV3227; • 384-well plate was purchased from PerkinElmer Company, and the article number was 6007290.
In this experiment, the homogeneous time-resolved fluorescence (HTRF) method was used for the detection of compounds on KDR kinase activity.

[3] = system: TT cells (MTC, RET C634W); test: Inhibition of proliferation of TT cells (CellTiter-Glo, 72 h); type: cell-based; conditions: Homo sapiens
Method: TT cells were purchased from the cell bank of the Chinese Academy of Sciences.
When TT cells were cultured to the appropriate fusion level, TT cells were collected, and the cells were adjusted to the appropriate cell concentration using complete medium, and the cell suspension was spread in a 96-well plate, 90 μL per well, and placed to the wall of a 37° C., 5% CO2 incubator overnight; and compound solutions of different concentrations were prepared using DMSO and culture medium; and a solvent control was set, the compound solution was added to a 96-well plate, 10 μL per well, and placed to the wall of a 37° C., 5% CO2 incubator for 72 hours; CellTiter-Glo solution was added thereto and the mixture was mixed well by shaking, incubated for 10 minutes in the dark, and read by BioTek Synergy H1 microplate reader.
The IC50 values were obtained by using luminescence signal values to calculate the inhibition rate, the concentration and the inhibition rate were fitted to a nonlinear regression curve using Graphpad Prism software.

[4] = molecular target: T3, Ba/F3 KIF5B-RET cells (Homo sapiens, UniProt P07949); test: Inhibition of proliferation of Ba/F3 KIF5B-RET cells (CellTiter-Glo); type: cell-based; conditions: 72 to 144 hours
T3 construct: fused on or other part: P33176 (Kinesin-1 heavy chain)
Method: When Ba/F3 KIF5B-RET cells were cultured to the appropriate cell density, cells were collected, and the cells were adjusted to the appropriate cell concentration using complete medium, and the cell suspension was spread in a 96-well plate, 90 μL per well, and placed in the wall of a 37° C., 5% CO2 incubator overnight; compound solutions of different concentrations were prepared using DMSO and culture medium; a solvent control was set, and the compound solution was added to a 96-well plate with […] at 37° C. in a 5% CO2 incubator for 72 to 144 hours, CellTiter-Glo solution was added thereto and mixed well by shaking, incubated for 10 minutes in the dark, and read by BioTek Synergy H1 microplate reader.
The IC50 values were obtained by using the luminescence signal values to calculate the inhibition rate, the concentrations and the inhibition rates were fitted to a nonlinear regression curve using Graphpad Prism software.

[5] = Balb/C mouse pharmacokinetics, oral 5 mg/kg; type: in vivo, Balb/C mice; conditions: male, p.o. 5 mg/kg, plasma; for MRT: read-out: Average residence time MRT; for Cmax: read-out: Blood concentration Cmax; for AUC(0-t): read-out: Curve area AUC0-t; for AUC(0-inf): read-out: Curve area AUC0-∞; for half-life: read-out: Half-life t1/2 (converted); for Tmax: read-out: Peak time tmax
Method: The pharmacokinetic behavior of the following compound embodiments, administered orally at a dose of 5 mg/kg in plasma in mice, was studied using Balb/C mice as test animals.
Balb/C Mouse 6/embodiment, male, Shanghai Jiesijie Laboratory Animal Co., Ltd, Animal Production License No. (SCXK (Shanghai) 2013-0006 N0.311620400001794).
Balb/C mice, males; p.o. after overnight fasting, respectively, at a dose of 5 mg/kg, administered in a volume of 10 mL/kg.
0.5% CMC-Na (1% Tween80) was dissolved by ultrasound, and prepared into clear solution or uniform suspension.
Before and after administration, 0.1 mL of blood was collected from mice at 0, 0.5, 1, 2, 4, 6, 8 and 24 hours by orbital collection, placed in EDTA-K2 tubes, centrifuged at 6000 rpm at 4° C. for 6 minutes to separate plasma, and stored at −80° C.
2.5 Sample Handling: • 1) 40 μL of plasma sample was precipitated by adding 160 μL of acetonitrile, mixed and centrifuged at 3500×g for 5-20 minutes. • 2) 100 μL of the supernatant solution after treatment was taken to analyze the concentration of the test compound by LC/MS/MS.
2.6 Liquid Phase Analysis • Liquid phase conditions: Shimadzu LC-20AD pump • Mass spectrometry conditions: AB Sciex API 4000 mass spectrometer • Chromatographic column: phenomenex Gemiu 5 μM C18 50×4.6 mm • Mobile phase: Liquid A was 0.1% formic acid aqueous solution, liquid B was acetonitrile • Flow rate: 0.8 mL/min • Elution time: 0-4.0 minutes, the eluent was as follows:
The main pharmacokinetic parameters were calculated by WinNonlin 6.1 and the results of the mouse pharmacokinetic experiments were shown in Table 13 below.

T2 sequence (P35968 20-1356): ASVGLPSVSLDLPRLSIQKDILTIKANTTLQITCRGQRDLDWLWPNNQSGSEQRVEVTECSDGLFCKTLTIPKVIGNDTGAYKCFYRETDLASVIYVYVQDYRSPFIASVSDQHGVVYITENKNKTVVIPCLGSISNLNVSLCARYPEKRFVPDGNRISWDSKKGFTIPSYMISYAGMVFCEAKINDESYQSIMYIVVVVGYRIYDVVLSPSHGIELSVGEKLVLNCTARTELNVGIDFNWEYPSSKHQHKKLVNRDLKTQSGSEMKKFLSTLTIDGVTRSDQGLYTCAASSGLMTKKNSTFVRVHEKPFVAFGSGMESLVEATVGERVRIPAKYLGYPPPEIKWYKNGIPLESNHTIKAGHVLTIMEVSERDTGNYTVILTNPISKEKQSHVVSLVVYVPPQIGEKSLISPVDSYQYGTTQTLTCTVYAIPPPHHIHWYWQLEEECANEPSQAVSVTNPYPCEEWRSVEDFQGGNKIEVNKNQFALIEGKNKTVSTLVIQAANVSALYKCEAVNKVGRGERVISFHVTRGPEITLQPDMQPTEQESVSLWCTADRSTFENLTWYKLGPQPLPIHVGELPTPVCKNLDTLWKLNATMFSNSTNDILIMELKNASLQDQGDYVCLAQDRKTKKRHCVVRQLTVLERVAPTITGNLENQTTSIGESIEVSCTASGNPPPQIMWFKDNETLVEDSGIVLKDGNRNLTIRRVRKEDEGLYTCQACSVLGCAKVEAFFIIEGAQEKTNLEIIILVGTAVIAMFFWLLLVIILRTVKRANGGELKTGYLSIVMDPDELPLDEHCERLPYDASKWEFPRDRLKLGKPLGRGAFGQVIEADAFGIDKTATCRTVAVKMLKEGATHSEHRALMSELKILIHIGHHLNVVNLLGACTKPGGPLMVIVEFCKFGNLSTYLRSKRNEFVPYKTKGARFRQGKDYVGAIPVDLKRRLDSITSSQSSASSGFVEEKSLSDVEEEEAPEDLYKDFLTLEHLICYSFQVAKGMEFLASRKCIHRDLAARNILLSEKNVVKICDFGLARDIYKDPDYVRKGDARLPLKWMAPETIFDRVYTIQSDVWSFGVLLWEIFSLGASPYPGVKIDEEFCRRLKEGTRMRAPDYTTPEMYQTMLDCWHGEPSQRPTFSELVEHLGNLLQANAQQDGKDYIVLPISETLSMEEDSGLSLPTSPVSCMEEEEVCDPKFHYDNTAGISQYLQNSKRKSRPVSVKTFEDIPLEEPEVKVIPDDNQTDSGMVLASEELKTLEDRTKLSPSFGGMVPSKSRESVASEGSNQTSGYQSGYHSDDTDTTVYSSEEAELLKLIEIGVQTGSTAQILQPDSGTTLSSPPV
T3 sequence (P07949 whole entry, change not shown, the tested form may be a part): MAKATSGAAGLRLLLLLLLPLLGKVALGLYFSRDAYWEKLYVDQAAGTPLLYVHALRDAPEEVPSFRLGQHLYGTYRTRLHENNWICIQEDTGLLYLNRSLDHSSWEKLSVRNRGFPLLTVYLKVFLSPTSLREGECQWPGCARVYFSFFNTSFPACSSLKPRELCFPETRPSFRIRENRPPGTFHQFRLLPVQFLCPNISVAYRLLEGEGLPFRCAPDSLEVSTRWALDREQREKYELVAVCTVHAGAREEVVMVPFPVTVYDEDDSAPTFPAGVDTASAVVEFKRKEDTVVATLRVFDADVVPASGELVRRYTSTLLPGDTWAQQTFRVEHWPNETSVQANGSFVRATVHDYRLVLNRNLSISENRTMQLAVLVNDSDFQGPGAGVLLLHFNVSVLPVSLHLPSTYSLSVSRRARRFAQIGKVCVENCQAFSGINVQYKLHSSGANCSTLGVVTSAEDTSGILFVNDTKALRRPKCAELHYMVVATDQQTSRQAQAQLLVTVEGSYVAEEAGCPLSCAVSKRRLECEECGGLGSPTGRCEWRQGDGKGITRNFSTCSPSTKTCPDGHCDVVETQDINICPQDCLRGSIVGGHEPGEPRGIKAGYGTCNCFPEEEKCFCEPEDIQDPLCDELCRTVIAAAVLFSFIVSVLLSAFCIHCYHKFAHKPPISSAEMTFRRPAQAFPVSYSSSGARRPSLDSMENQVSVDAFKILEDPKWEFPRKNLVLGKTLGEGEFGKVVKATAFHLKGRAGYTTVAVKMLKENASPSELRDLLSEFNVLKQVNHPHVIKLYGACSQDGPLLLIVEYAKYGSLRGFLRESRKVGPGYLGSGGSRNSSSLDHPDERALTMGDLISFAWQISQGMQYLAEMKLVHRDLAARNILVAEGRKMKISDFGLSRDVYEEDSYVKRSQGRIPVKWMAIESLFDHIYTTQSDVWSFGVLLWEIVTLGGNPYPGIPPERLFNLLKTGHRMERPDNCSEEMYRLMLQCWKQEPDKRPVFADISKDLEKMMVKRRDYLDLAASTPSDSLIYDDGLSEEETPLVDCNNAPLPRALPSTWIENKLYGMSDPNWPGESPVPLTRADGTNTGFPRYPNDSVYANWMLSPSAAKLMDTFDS
T1 sequence (P07949 29-1114): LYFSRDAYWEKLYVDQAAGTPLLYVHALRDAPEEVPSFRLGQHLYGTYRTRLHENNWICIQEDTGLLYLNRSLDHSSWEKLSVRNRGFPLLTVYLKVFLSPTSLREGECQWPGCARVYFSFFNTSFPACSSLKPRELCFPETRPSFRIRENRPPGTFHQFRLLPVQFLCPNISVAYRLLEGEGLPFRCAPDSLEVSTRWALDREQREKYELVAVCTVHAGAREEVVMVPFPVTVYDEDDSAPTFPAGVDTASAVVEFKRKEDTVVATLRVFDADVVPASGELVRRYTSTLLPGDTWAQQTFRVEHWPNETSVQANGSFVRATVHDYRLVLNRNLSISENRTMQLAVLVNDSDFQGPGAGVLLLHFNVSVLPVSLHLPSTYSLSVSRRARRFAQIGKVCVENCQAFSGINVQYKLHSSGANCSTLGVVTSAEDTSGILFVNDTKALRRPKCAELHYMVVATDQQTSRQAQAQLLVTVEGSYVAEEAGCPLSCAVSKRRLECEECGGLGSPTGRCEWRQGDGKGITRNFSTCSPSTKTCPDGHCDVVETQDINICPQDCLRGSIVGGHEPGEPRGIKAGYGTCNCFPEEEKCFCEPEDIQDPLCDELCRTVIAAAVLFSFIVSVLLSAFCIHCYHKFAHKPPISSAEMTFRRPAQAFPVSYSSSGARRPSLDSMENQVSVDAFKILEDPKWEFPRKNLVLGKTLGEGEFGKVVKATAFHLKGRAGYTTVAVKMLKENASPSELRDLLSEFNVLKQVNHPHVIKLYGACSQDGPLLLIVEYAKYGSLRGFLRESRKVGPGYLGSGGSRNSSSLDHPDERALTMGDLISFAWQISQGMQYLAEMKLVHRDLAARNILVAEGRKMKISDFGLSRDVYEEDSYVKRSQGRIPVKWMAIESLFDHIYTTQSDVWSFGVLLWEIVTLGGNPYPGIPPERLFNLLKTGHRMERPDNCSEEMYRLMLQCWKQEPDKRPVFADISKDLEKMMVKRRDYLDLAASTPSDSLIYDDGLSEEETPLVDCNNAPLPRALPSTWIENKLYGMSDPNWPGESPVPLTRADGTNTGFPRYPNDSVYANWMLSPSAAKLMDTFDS

SMILES | IC50 [1] [nM] | IC50 [2] [nM] | Ratio (KDR/RET) [2] | IC50 [3] [nM] | IC50 [4] [nM] | MRT [5] [h] | Cmax [5] [ng/mL] | AUC(0-t) [5] [ng·h/mL] | AUC(0-inf) [5] [ng·h/mL] | half-life [5] [h] | Tmax [5] [h]
COc1ccc(CN2C3CC2CN(c2ccc(-c4cc(C#C[C@H](C)O)cn5ncc(C#N)c45)cn2)C3)cn1 [Embodiment 21, 6-((S)-3-Hydroxybut-1-yn-1-yl)-4-(6-(6-((6-methoxypyridin-3-yl)methyl)-3,6-diazabicyclo[3.1.1]heptan-3-yl)pyridin-3-yl)pyrazolo[1,5-a]pyridine-3-carbonitrile] | 0.41 | 9.4 | 23 | 18.1 |  |  |  |  |  |  | 
COc1ccc(CN2C3CC2CN(c2ccc(-c4cc(OCC5CCS(=N)(=O)CC5)cn5ncc(C#N)c45)cn2)C3)cn1 (stereo not drawn) [Embodiment 54, 6-((1-Imino-1-hydroxyhexahydro-1l6-thiopyran-4-yl)methoxy)-4-(6-(6-((6-methoxypyridin-3-yl)methyl)-3,6-diazabicyclo[3.1.1]heptan-3-yl)pyridin-3-yl)pyrazolo[1,5-a]pyridine-3-carbonitrile] | 0.34 | 9 | 26 | 9 |  |  |  |  |  |  | 
COCC(C)(O)C#Cc1cc(-c2ccc(N3CC4CC(C3)N4Cc3cnc(OC)c(F)c3)nc2)c2c(C#N)cnn2c1 (stereo not drawn) [Embodiment 61, 4-(6-(6-((5-Fluoro-6-methoxypyridin-3-yl)methyl)-3,6-diazabicyclo[3.1.1]heptan-3-yl)pyridin-3-yl)-6-(3-hydroxy-4-methoxy-3-methylbut-1-yn-1-yl)pyrazolo[1,5-a]pyridine-3-carbonitrile] | 0.35 | 11.2 | 32 |  | 16.8 |  |  |  |  |  | 
COc1ccc(CN2C3CC2CN(c2ccc(-c4cc(OCC56CC(O)(C5)C6)cn5ncc(C#N)c45)cn2)C3)cn1 [Embodiment 47, 6-((3-Hydroxybicyclo[1.1.1]pentan-1-yl)methoxy)-4-(6-(6-((6-methoxypyridin-3-yl)methyl)-3,6-diazabicyclo[3.1.1]heptan-3-yl)pyridin-3-yl)pyrazolo[1,5-a]pyridine-3-carbonitrile] | 0.4 | 176 | 438 | 13.3 |  |  |  |  |  |  | 
COc1ccc(CN2C3CC2CN(c2ccc(-c4cc(C#CC(O)C5CC5)cn5ncc(C#N)c45)cn2)C3)cn1 (stereo not drawn) [Embodiment 19, 6-(3-Cyclopropyl-3-hydroxyprop-1-yn-1-yl)-4-(6-(6-((6-methoxypyridin-3-yl)methyl)-3,6-diazabicyclo[3.1.1]heptan-3-yl)pyridin-3-yl)pyrazolo[1,5-a]pyridine-3-carbonitrile] |  |  |  |  | 27.8 |  |  |  |  |  | 
COc1ccc(CN2C3CC2CN(c2ccc(-c4cc(OCC5(C#N)CC5)cn5ncc(C#N)c45)cn2)C3)cn1 [Embodiment 27, 6-((1-Cyanocyclopropyl)methoxy)-4-(6-(6-((6-methoxypyridin-3-yl)methyl)-3,6-diazabicyclo[3.1.1]heptan-3-yl)pyridin-3-yl)pyrazolo[1,5-a]pyridine-3-carbonitrile] | 0.32 | 88 | 280 |  | 15.9 |  |  |  |  |  | 
COc1ncc(CN2C3CC2CN(c2ccc(-c4cc(C#C[C@@H](C)O)cn5ncc(C#N)c45)cn2)C3)cc1F [Embodiment 68, 4-(6-(6-((5-Fluoro-6-methoxypyridin-3-yl)methyl)-3,6-diazabicyclo[3.1.1]heptan-3-yl)pyridin-3-yl)-6-((R)-3-hydroxybut-1-yn-1-yl)pyrazolo[1,5-a]pyridine-3-carbonitrile] | 0.44 | 18.9 | 43 |  | 26.3 | 3.47 | 1700 | 7210 | 7220 | 1.73 | 0.5
[2H]C([2H])([2H])Oc1ccc(CN2C3CC2CN(c2ccc(-c4cc(N5CC(C(C)(C)O)C5)cn5ncc(C#N)c45)cn2)C3)cn1 [Embodiment 41, 6-(3-(2-Hydroxypropan-2-yl)azetidin-1-yl)-4-(6-(6-((6-(methoxy-d3)pyridin-3-yl)methyl)-3,6-diazabicyclo[3.1.1]heptan-3-yl)pyridin-3-yl)pyrazolo[1,5-a]pyridine-3-carbonitrile] | 0.4 | 11 | 27 | 9.45 |  |  |  |  |  |  | 
COc1ccc(CN2C3CC2CN(c2ccc(-c4cc(OCC5(C#N)CCOCC5)cn5ncc(C#N)c45)cn2)C3)cn1 [Embodiment 59, 6-((4-Cyanotetrahydro-2H-pyran-4-yl)methoxy)-4-(6-(6-((6-methoxypyridin-3-yl)methyl)-3,6-diazabicyclo[3.1.1]heptan-3-yl)pyridin-3-yl)pyrazolo[1,5-a]pyridine-3-carbonitrile] | 0.58 | 184 | 317 |  | 34 | 4.27 | 1330 | 7340 | 7370 | 2.34 | 0.5
COc1ccc(CN2C3CC2CN(c2ccc(-c4cc(N5CC6(C5)CC(C)(O)C6)cn5ncc(C#N)c45)cn2)C3)cn1 [Embodiment 32, 6-(6-Hydroxy-6-methyl-2-azaspiro[3.3]heptan-2-yl)-4-(6-(6-((6-methoxypyridin-3-yl)methyl)-3,6-diazabicyclo[3.1.1]heptan-3-yl)pyridin-3-yl)pyrazolo[1,5-a]pyridine-3-carbonitrile] | 0.49 | 1.8 | 4 | 2.07 |  |  |  |  |  |  | 
CC1(NC(=O)c2ncccc2Cl)CCN(c2ccc(-c3cc(OCC4(N)CC4)cn4ncc(C#N)c34)cn2)CC1 [Embodiment 91, N-(1-(5-(6-((1-aminocyclopropyl)methoxy)-3-cyanopyrazolo[1,5-a]pyridin-4-yl)pyridin-2-yl)-4-methylpiperidin-4-yl)-3-chloropicolinamide] | 1.54 | 204 | 133 | 29.6 |  |  |  |  |  |  | 
COc1ccc(CN2C3CC2CN(c2ccc(-c4cc(C#CCC(C)(C)O)cn5ncc(C#N)c45)cn2)C3)cn1 [Embodiment 48, 6-(4-Hydroxy-4-methylpent-1-yn-1-yl)-4-(6-(6-((6-methoxypyridin-3-yl)methyl)-3,6-diazabicyclo[3.1.1]heptan-3-yl)pyridin-3-yl)pyrazolo[1,5-a]pyridine-3-carbonitrile] | 0.42 | 13 | 30 | 19.6 |  |  |  |  |  |  | 
